In ChEMBL document CHEMBL6134844, “Development of Next-Generation Antimalarial Acridones with Radical Cure Potential” (J Med Chem, 2025):
The source made the active and inactive calls. No cut-off for these calls is given here.

Key:
[1] = Toxicity in CF1 mouse infected with asexual blood-stage (ABS) Plasmodium yoelii MRA-428 assessed as behavioural change at 0.3 to 30 mg/kg, po treated 24 hrs post infection measured after 4 days; assay type: organism-based; conditions: in vivo, dose 0.3-30 mg/kg
[2] = Toxicity in CF1 mouse infected with asexual blood-stage (ABS) Plasmodium yoelii MRA-428 assessed as lethargy at 0.3 to 30 mg/kg, po treated 24 hrs post infection measured after 4 days; assay type: organism-based; conditions: in vivo, 96 h, dose 0.3-30 mg/kg, time 4 day
[3] = mouse, microsomes, 1 h
[4] = Cmax in male ICR-CD1 mouse liver at 40 mg/kg, po; assay type: ADME, organism-based
Plasmodium yoelii [5] = assay: In vivo antiplasmodial activity against asexual blood-stage (ABS) Plasmodium yoelii MRA-428 infected in 4-day suppression CF1 mouse model assessed as reduction in parasitemia by measuring cured mouse at 60 mg/kg, po single dose treated 24 hrs post infection; assay type: functional, organism-based
Plasmodium berghei [6] = assay: In vivo antiplasmodial activity against luciferase expressing liver stage Plasmodium berghei ANKA MRA-868 sporozoites infected in Albino C57BL/6 mouse model assessed as protection at 40 mg/kg, po daily measured 24 to 72 hrs by real-time In Vivo Imaging System (IVIS); assay type: functional; conditions: time 24-72 hrs
[7] = MRTlast in male ICR-CD1 mouse liver at 40 mg/kg, po; assay type: ADME, organism-based
[8] = AUCextrap in male ICR-CD1 mouse liver at 40 mg/kg, po; assay type: ADME, organism-based
Plasmodium cynomolgi [9] = assay: (§1) Antiplasmodial activity against schizont Plasmodium cynomolgi B strain infected in Macaca mulatta hepatocytes incubated with sporozoite containing salivary gland homogenate obtained from dissected Anopheles dirus mosquitoes (infected with Plasmodium cynomolgi B strain) treatment started on day 4 post infection and continued daily for 4 days into fresh changed media until day 8 assessed as Liver stage (LS) activity by measuring radical cure mode by immunofluorescent staining analysis; assay type: functional, organism-based; conditions: Hepatocyte
Plasmodium falciparum [10] = assay: Antiplasmodial activity against asexual blood-stage (ABS) CQ-sensitive Plasmodium falciparum D6 infected in human erythrocytes assessed as reduction in fluorescence measured after 72 hrs by Malaria SYBR Green I-based Fluorescence (MSF) assay; assay type: functional, organism-based; conditions: D6, Erythrocyte
[11] = as §1, with “Selectivity index, ratio of CC50 for Macaca mulatta hepatocytes to IC50 for antiplasmodial” for “Antiplasmodial”; assay type: toxicity, cell-based; conditions: rhesus monkey, read-out: Selectivity Index
[12] = as §1, with “Selectivity index, ratio of CC50 for Macaca mulatta hepatocytes to IC50 for antiplasmodial” for “Antiplasmodial”, “prophylactic” for “radical cure”; assay type: toxicity, cell-based; conditions: rhesus monkey, read-out: Selectivity Index
[13] = MRTlast in male ICR-CD1 mouse plasma at 40 mg/kg, po; assay type: ADME, organism-based
Hepatocyte = assay: Cytotoxicity against Macaca mulatta hepatocytes assessed as cell viability measured after 48 hrs by MTT assay; assay type: toxicity, cell-based; conditions: rhesus monkey, 48 h
Plasmodium cynomolgi [14] = assay: as §1, with “hypnozoite” for “schizont”, “prophylactic” for “radical cure”; assay type: functional, organism-based; conditions: Hepatocyte
Plasmodium yoelii [15] = assay: In vivo antiplasmodial activity against asexual blood-stage (ABS) Plasmodium yoelii MRA-428 infected in 4-day suppression CF1 mouse model assessed as reduction in parasitemia by measuring protection at 30 mg/kg, po treated 24 hrs post infection daily measured up to 28 days; assay type: functional, organism-based; conditions: time <= 28.0 day
Plasmodium cynomolgi [16] = assay: as §1, with “prophylactic” for “radical cure”; assay type: functional, organism-based; conditions: Hepatocyte
[17] = Cmax in male ICR-CD1 mouse plasma at 40 mg/kg, po; assay type: ADME, organism-based
Plasmodium falciparum [18] = assay: Antiplasmodial activity against asexual blood-stage (ABS) MDR Plasmodium falciparum Dd2 infected in human erythrocytes assessed as reduction in fluorescence measured after 72 hrs by Malaria SYBR Green I-based Fluorescence (MSF) assay; assay type: functional, organism-based; conditions: Dd2, Erythrocyte
[19] = as §1, with “Selectivity index, ratio of CC50 for Macaca mulatta hepatocytes to IC50 for antiplasmodial” for “Antiplasmodial”, “hypnozoite” for “schizont”, “prophylactic” for “radical cure”; assay type: toxicity, cell-based; conditions: rhesus monkey, read-out: Selectivity Index
[20] = Toxicity in CF1 mouse infected with asexual blood-stage (ABS) Plasmodium yoelii MRA-428 assessed as ruffled hair at 0.3 to 30 mg/kg, po treated 24 hrs post infection measured after 4 days; assay type: organism-based; conditions: in vivo, 96 h, dose 0.3-30 mg/kg, time 4 day
[21] = Toxicity in CF1 mouse infected with asexual blood-stage (ABS) Plasmodium yoelii MRA-428 assessed as hunching at 0.3 to 30 mg/kg, po treated 24 hrs post infection measured after 4 days; assay type: organism-based; conditions: in vivo, 96 h, dose 0.3-30 mg/kg, time 4 day
[22] = as §1, with “Selectivity index, ratio of CC50 for Macaca mulatta hepatocytes to IC50 for antiplasmodial” for “Antiplasmodial”, “hypnozoite” for “schizont”; assay type: toxicity, cell-based; conditions: rhesus monkey, read-out: Selectivity Index
[23] = Toxicity in CF1 mouse infected with asexual blood-stage (ABS) Plasmodium yoelii MRA-428 assessed as clinical toxicity at 0.3 to 30 mg/kg, po treated 24 hrs post infection measured after 4 days; assay type: organism-based; conditions: in vivo, dose 0.3-30 mg/kg
[24] = Toxicity in CF1 mouse infected with asexual blood-stage (ABS) Plasmodium yoelii MRA-428 assessed as weight loss at 0.3 to 30 mg/kg, po treated 24 hrs post infection measured after 4 days; assay type: organism-based; conditions: in vivo, 96 h, dose 0.3-30 mg/kg, time 4 day
Plasmodium cynomolgi [25] = assay: as §1, with “hypnozoite” for “schizont”; assay type: functional, organism-based; conditions: Hepatocyte
[26] = Mutagenicity in Salmonella typhimurium TA98 assessed as background reversion rate up to 10 uM without S-9 metabolic activation by AMES test; assay type: toxicity; conditions: salmonella enterica subsp. enterica serovar typhimurium
[27] = Tmax in male ICR-CD1 mouse liver at 40 mg/kg, po; assay type: ADME, organism-based
Plasmodium yoelii [28] = assay: In vivo antiplasmodial activity against asexual blood-stage (ABS) Plasmodium yoelii MRA-428 infected in 4-day suppression CF1 mouse model assessed as reduction in parasitemia by measuring cured mouse at 100 mg/kg, po single dose treated 24 hrs post infection; assay type: functional, organism-based
HepG2 = assay: Cytotoxicity against human HepG2 cells assessed as cell viability measured after 48 hrs by MTT assay; assay type: functional, cell-based; conditions: HepG2, 48 h
[29] = Apparent oral clearance in male ICR-CD1 mouse liver at 40 mg/kg, po; assay type: ADME, organism-based
Plasmodium berghei [30] = assay: In vivo antiplasmodial activity against luciferase expressing liver stage Plasmodium berghei ANKA MRA-868 sporozoites infected in Albino C57BL/6 mouse model assessed as protection at 10 mg/kg, po daily measured 24 to 72 hrs by real-time In Vivo Imaging System (IVIS); assay type: functional
[31] = Mutagenicity in Salmonella typhimurium TA100 assessed as background reversion rate up to 10 uM with S-9 metabolic activation by AMES test; assay type: toxicity; conditions: salmonella enterica subsp. enterica serovar typhimurium
[32] = Mutagenicity in Salmonella typhimurium TA100 assessed as background reversion rate up to 10 uM without S-9 metabolic activation by AMES test; assay type: toxicity; conditions: salmonella enterica subsp. enterica serovar typhimurium

O=c1c2c([nH]c3cc(Oc4ccc(OC(F)(F)F)cc4)ccc13)CCCC2
Activity [1]: Non-toxic | Activity [2]: Non-toxic | CLH [3]: 117 µL/min/mg | Cmax [4]: 6080 ng/mL | Activity (Plasmodium yoelii [5]): Active | Activity (Plasmodium berghei [6]): 100% | MRT last [7]: 5.16 h | AUC [8]: 0.12% | IC50 (Plasmodium cynomolgi [9]): 380 nM | IC50 (Plasmodium falciparum [10]): 0.31 nM | selectivity ratio at 96 h [11]: 1.61 | selectivity ratio at 96 h [12]: 4.69 | MRT last [13]: 4.1 h | CC50 (Hepatocyte): 610 nM | IC50 (Plasmodium cynomolgi [14]): 340 nM | Activity (Plasmodium yoelii [15]): Active; Out Of 4 - 3 Mouse Cured | IC50 (Plasmodium cynomolgi [16]): 130 nM | Cmax [17]: 83 ng/mL | IC50 (Plasmodium falciparum [18]): 0.253 nM | selectivity ratio at 96 h [19]: 1.79 | Activity [20]: Non-toxic | Activity [21]: Non-toxic | selectivity ratio at 96 h [22]: 1.11 | Activity [23]: Non-toxic | Activity [24]: Non-toxic | IC50 (Plasmodium cynomolgi [25]): 550 nM | Activity [26]: Non-toxic | Tmax [27]: 4 h | Activity (Plasmodium yoelii [28]): Active | IC50 (HepG2): 99400 nM | CL/F [29]: 0.542 mL/min/kg | Activity (Plasmodium berghei [30]; time 24-72 hrs): 100% | Activity [31]: Non-toxic | Activity [32]: Non-toxic

O=c1c2c([nH]c3cc(Oc4ccc(OC(F)(F)F)cc4)c(F)cc13)CCCC2
Activity [1]: Non-toxic | Activity [2]: Non-toxic | CLH [3]: 74.9 µL/min/mg | Cmax [4]: 654 ng/mL | Activity (Plasmodium yoelii [5]): Active | Activity (Plasmodium berghei [6]): 100% | MRT last [7]: 5.64 h | AUC [8]: 0.603% | IC50 (Plasmodium cynomolgi [9]): 2410 nM | IC50 (Plasmodium falciparum [10]): 0.015 nM | selectivity ratio at 96 h [11]: 1.29 | selectivity ratio at 96 h [12]: 31.1 | MRT last [13]: 2.95 h | CC50 (Hepatocyte): 3110 nM | IC50 (Plasmodium cynomolgi [14]): 600 nM | Activity (Plasmodium yoelii [15]): Active; Out Of 4 - 3 Mouse Cured | IC50 (Plasmodium cynomolgi [16]): 100 nM | Cmax [17]: 42.1 ng/mL | IC50 (Plasmodium falciparum [18]): 0.268 nM | selectivity ratio at 96 h [19]: 5.18 | Activity [20]: Non-toxic | Activity [21]: Non-toxic | selectivity ratio at 96 h [22]: 1.49 | Activity [23]: Non-toxic | Activity [24]: Non-toxic | IC50 (Plasmodium cynomolgi [25]): 2080 nM | Activity [26]: Non-toxic | Tmax [27]: 0.5 h | Activity (Plasmodium yoelii [28]): Active | IC50 (HepG2): > 200000 nM | CL/F [29]: 3.58 mL/min/kg | Activity (Plasmodium berghei [30]; time lower 24.0 hrs, time upper […]): Not active; Out Of 5 - 0 Mouse Cured | Activity [31]: Non-toxic | Activity [32]: Non-toxic
